According to US20240245793A1, “PSD-95 INHIBITORS AND USES THEREOF” (priority 2021, published 2024):

test system: HeLa cells stably expressing HaloGFP; assay: Chloroalkane penetration assay (CAPA), membrane permeability and cellular uptake; assay type: cell-based; details: not given
Source text: Since PSD-95 is located intracellularly, it is essential for any drug targeting PSD-95 to efficiently cross the cell membrane. To assess the cellular permeability and delivery to the cytosol of the compounds as defined herein, the cellular chloroalkane penetration assay (CAPA) may be used (Peraro et al. 2018). This assay takes advantage of a modified haloalkane dehalogenase designed to covalently bind chloroalkane (CA) molecules. A HeLa cell line expressing a fusion protein comprising a HaloTag, a green fluorescent protein (GFP) and a mitochondria-targeting peptide is used to report cytosolic delivery. The general format of the CAPA is a pulse-chase assay (Deprey & Kritzer, 2020). Cells expressing the HaloTag enzyme are incubated with CA-tagged peptides. When these CA-peptides penetrate the cell membrane and reach the cytosol, they will bind to and react with the HaloTag (pulse step). Following a washing step, the cells are incubated with a CA-tagged dye that quantitatively penetrates the cell membrane and reacts with remaining unreacted HaloTag sites (chase step). Flow cytometry is used to measure the fluorescence intensity of the cells and the measured fluorescence is inversely proportional to the amount of CA-peptides that reach the penetrated the cells and can thus be used to assess cytosolic delivery. The obtained data is commonly expressed as CP50 values, the concentration at which 50% cell penetration is observed. The CP50 value of a compound may be measured as described in example 4.
The membrane permeability of compounds 10 to 75 was determined in HeLa cells stably expressing HaloGFP exclusively located in the cytosol. Cells were seeded at a density of 40.000 cells/well one day prior to the experiment. After the growth media was aspirated and replaced by 100 μL of Opti-MEM, 25 μL of a prepared serial dilution of the ligand in Opti-MEM was added to the cells (constant DMSO concentration), and the plate was incubated for 4 h at 37° C. and 5% CO2. The contents of the wells were aspirated, and cells were washed with fresh Opti-MEM for 15 min. After aspiration of the wash, the cells were incubated with TAMRA-CA (5 μM) for 15 min. After aspiration of the chase solution, cells were washed with Opti-MEM for 30 min. Following removal of the wash, cells were trypsinized, resuspended in PBS (2% FBS), and analyzed using a benchtop flow cytometer. Using no ligand and no TAMRA-CA control well, the obtained fluorescence intensity data was normalized and plotted as dose-response curves. Reported CP50 values represent half-maximum red fluorescence which behaves inverse to cell penetration of the ligand.

`CC(C)C[C@H](NC(=O)[C@@H](NC(=O)[C@H](CCC(=O)O)NC(=O)[C@H](CCCCN)NC(=O)CCOCCOCCN(CCOCCOCCC(=O)N[C@@H](CCCCN)C(=O)N[C@@H](CCC(=O)O)C(=O)N[C@H](C(=O)N[C@@H](CC(C)C)C(=O)N[C@H](C(=O)O)C(C)C)[C@@H](C)O)C(=O)[C@H](CCCNC(=N)N)NC(=O)[C@H](CCCNC(=N)N)NC(=O)[C@H](CCCNC(=N)N)NC(=O)[C@H](CCCNC(=N)N)NC(=O)[C@H](CCCNC(=N)N)NC(=O)[C@H](CCCNC(=N)N)NC(=O)[C@H](CCCNC(=N)N)NC(=O)[C@H](CCCNC(=N)N)NC(=O)[C@H](CCCNC(=N)N)NC(=O)CCC(=O)NCCOCCOCCCCCCCl)[C@@H](C)O)C(=O)N[C@H](C(=O)O)C(C)C` [Compound 24] and `CC(C)[C@H](NC(=O)[C@@H](NC(=O)[C@@H](NC(=O)[C@H](CCC(=O)O)NC(=O)[C@H](CCCCN)NC(=O)CCOCCOCCN(CCOCCOCCC(=O)N[C@@H](CCCCN)C(=O)N[C@@H](CCC(=O)O)C(=O)N[C@H](C(=O)N[C@H](C(=O)N[C@H](C(=O)O)C(C)C)C(C)C)[C@@H](C)O)C(=O)[C@H](CCCNC(=N)N)NC(=O)[C@H](CCCNC(=N)N)NC(=O)[C@H](CCCNC(=N)N)NC(=O)[C@H](CCCNC(=N)N)NC(=O)[C@H](CCCNC(=N)N)NC(=O)[C@H](CCCNC(=N)N)NC(=O)[C@H](CCCNC(=N)N)NC(=O)[C@H](CCCNC(=N)N)NC(=O)[C@H](CCCNC(=N)N)NC(=O)CCC(=O)NCCOCCOCCCCCCCl)[C@@H](C)O)C(C)C)C(=O)O` [Compound 28] are within error of each other in CP50: 0.78 ± 0.05 µM for the first, 0.79 ± 0.06 µM for the second.

In the case of `CC(C)[C@H](NC(=O)[C@@H](NC(=O)[C@@H](NC(=O)[C@H](CCC(=O)O)NC(=O)[C@H](CCCCN)NC(=O)CCOCCOCCN(CCOCCOCCC(=O)N[C@@H](CCCCN)C(=O)N[C@@H](CCC(=O)O)C(=O)N[C@H](C(=O)N[C@H](C(=O)N[C@H](C(=O)O)C(C)C)[C@@H](C)O)[C@@H](C)O)C(=O)[C@H](CCCNC(=N)N)NC(=O)[C@H](CCCNC(=N)N)NC(=O)[C@H](CCCNC(=N)N)NC(=O)[C@H](CCCNC(=N)N)NC(=O)[C@H](CCCNC(=N)N)NC(=O)[C@H](CCCNC(=N)N)NC(=O)[C@H](CCCNC(=N)N)NC(=O)[C@H](CCCNC(=N)N)NC(=O)[C@H](CCCNC(=N)N)NC(=O)CCC(=O)NCCOCCOCCCCCCCl)[C@@H](C)O)[C@@H](C)O)C(=O)O` [Compound 26], the CP50 is reported as 0.74 ± 0.09 µM.

same assay, conditions: CA-tagged NPEG4-(IETDV)2 with various CPP-tags, 4 h at 37° C.; mean ± SEM (Table 11, FIG. 8)

With `CC[C@H](C)[C@H](NC(=O)CCOCCOCCN(CCOCCOCCC(=O)N[C@H](C(=O)N[C@@H](CCC(=O)O)C(=O)N[C@H](C(=O)N[C@@H](CC(=O)O)C(=O)N[C@H](C(=O)O)C(C)C)[C@@H](C)O)[C@@H](C)CC)C(=O)[C@H](CCCNC(=N)N)NC(=O)[C@H](CCCNC(=N)N)NC(=O)[C@H](CCCNC(=N)N)NC(=O)[C@H](CCC(N)=O)NC(=O)[C@H](CCCNC(=N)N)NC(=O)[C@H](CCCNC(=N)N)NC(=O)[C@H](CCCCN)NC(=O)[C@H](CCCCN)NC(=O)[C@H](CCCNC(=N)N)NC(=O)CNC(=O)[C@H](Cc1ccc(O)cc1)NC(=O)CCC(=O)NCCOCCOCCCCCCCl)C(=O)N[C@@H](CCC(=O)O)C(=O)N[C@H](C(=O)N[C@@H](CC(=O)O)C(=O)N[C@H](C(=O)O)C(C)C)[C@@H](C)O` [Compound 10] the CP50 was 55.1 ± 3.0 µM.

same assay, conditions: CA-tagged ligands, 4 h at 37° C.; L-TAT and L-Arg9; mean ± SEM (Table 10, FIG. 7)

`CC[C@H](C)[C@H](NC(=O)CCOCCOCCN(CCOCCOCCC(=O)N[C@H](C(=O)N[C@@H](CCC(=O)O)C(=O)N[C@H](C(=O)N[C@@H](CC(=O)O)C(=O)N[C@H](C(=O)O)C(C)C)[C@@H](C)O)[C@@H](C)CC)C(=O)[C@H](CCCNC(=N)N)NC(=O)[C@H](CCCNC(=N)N)NC(=O)[C@H](CCCNC(=N)N)NC(=O)[C@H](CCC(N)=O)NC(=O)[C@H](CCCNC(=N)N)NC(=O)[C@H](CCCNC(=N)N)NC(=O)[C@H](CCCCN)NC(=O)[C@H](CCCCN)NC(=O)[C@H](CCCNC(=N)N)NC(=O)CNC(=O)[C@H](Cc1ccc(O)cc1)NC(=O)CCC(=O)NCCOCCOCCCCCCCl)C(=O)N[C@@H](CCC(=O)O)C(=O)N[C@H](C(=O)N[C@@H](CC(=O)O)C(=O)N[C@H](C(=O)O)C(C)C)[C@@H](C)O` [Compound 10] and `CC[C@H](C)[C@H](NC(=O)CCOCCOCCN(CCOCCOCCC(=O)N[C@H](C(=O)N[C@@H](CO)C(=O)N[C@H](C(=O)N[C@@H](CC(=O)O)C(=O)N[C@H](C(=O)O)C(C)C)[C@@H](C)O)[C@@H](C)CC)C(=O)[C@H](CCCNC(=N)N)NC(=O)[C@H](CCCNC(=N)N)NC(=O)[C@H](CCCNC(=N)N)NC(=O)[C@H](CCC(N)=O)NC(=O)[C@H](CCCNC(=N)N)NC(=O)[C@H](CCCNC(=N)N)NC(=O)[C@H](CCCCN)NC(=O)[C@H](CCCCN)NC(=O)[C@H](CCCNC(=N)N)NC(=O)CNC(=O)[C@H](Cc1ccc(O)cc1)NC(=O)CCC(=O)NCCOCCOCCCCCCCl)C(=O)N[C@@H](CO)C(=O)N[C@H](C(=O)N[C@@H](CC(=O)O)C(=O)N[C@H](C(=O)O)C(C)C)[C@@H](C)O` [Compound 20] are within 1.5-fold of each other in CP50: 55.1 ± 3.0 µM for the first, 41.9 ± 1.6 µM for the second.

`CC(C)C[C@H](NC(=O)[C@@H](NC(=O)[C@H](CCC(=O)O)NC(=O)[C@H](CCCCN)NC(=O)CCOCCOCCN(CCOCCOCCC(=O)N[C@@H](CCCCN)C(=O)N[C@@H](CCC(=O)O)C(=O)N[C@H](C(=O)N[C@@H](CC(C)C)C(=O)N[C@H](C(=O)O)C(C)C)[C@@H](C)O)C(=O)[C@H](CCCNC(=N)N)NC(=O)[C@H](CCCNC(=N)N)NC(=O)[C@H](CCCNC(=N)N)NC(=O)[C@H](CCC(N)=O)NC(=O)[C@H](CCCNC(=N)N)NC(=O)[C@H](CCCNC(=N)N)NC(=O)[C@H](CCCCN)NC(=O)[C@H](CCCCN)NC(=O)[C@H](CCCNC(=N)N)NC(=O)CNC(=O)[C@H](Cc1ccc(O)cc1)NC(=O)CCC(=O)NCCOCCOCCCCCCCl)[C@@H](C)O)C(=O)N[C@H](C(=O)O)C(C)C` [Compound 12] and `CC(C)[C@H](NC(=O)[C@@H](NC(=O)[C@@H](NC(=O)[C@H](CCC(=O)O)NC(=O)[C@H](CCCCN)NC(=O)CCOCCOCCN(CCOCCOCCC(=O)N[C@@H](CCCCN)C(=O)N[C@@H](CCC(=O)O)C(=O)N[C@H](C(=O)N[C@H](C(=O)N[C@H](C(=O)O)C(C)C)C(C)C)[C@@H](C)O)C(=O)[C@H](CCCNC(=N)N)NC(=O)[C@H](CCCNC(=N)N)NC(=O)[C@H](CCCNC(=N)N)NC(=O)[C@H](CCC(N)=O)NC(=O)[C@H](CCCNC(=N)N)NC(=O)[C@H](CCCNC(=N)N)NC(=O)[C@H](CCCCN)NC(=O)[C@H](CCCCN)NC(=O)[C@H](CCCNC(=N)N)NC(=O)CNC(=O)[C@H](Cc1ccc(O)cc1)NC(=O)CCC(=O)NCCOCCOCCCCCCCl)[C@@H](C)O)C(C)C)C(=O)O` [Compound 16] are within 1.5-fold of each other in CP50: 72.5 ± 4.4 µM for the first, 81.8 ± 1.2 µM for the second.

Compared with `CC(C)[C@H](NC(=O)[C@@H](NC(=O)[C@@H](NC(=O)[C@H](CCC(=O)O)NC(=O)[C@H](CCCCN)NC(=O)CCOCCOCCN(CCOCCOCCC(=O)N[C@@H](CCCCN)C(=O)N[C@@H](CCC(=O)O)C(=O)N[C@H](C(=O)N[C@H](C(=O)N[C@H](C(=O)O)C(C)C)[C@@H](C)O)[C@@H](C)O)C(=O)[C@H](CCCNC(=N)N)NC(=O)[C@H](CCCNC(=N)N)NC(=O)[C@H](CCCNC(=N)N)NC(=O)[C@H](CCC(N)=O)NC(=O)[C@H](CCCNC(=N)N)NC(=O)[C@H](CCCNC(=N)N)NC(=O)[C@H](CCCCN)NC(=O)[C@H](CCCCN)NC(=O)[C@H](CCCNC(=N)N)NC(=O)CNC(=O)[C@H](Cc1ccc(O)cc1)NC(=O)CCC(=O)NCCOCCOCCCCCCCl)[C@@H](C)O)[C@@H](C)O)C(=O)O` [Compound 14], `CC(C)[C@H](NC(=O)[C@H](CCCNC(=N)N)NC(=O)[C@@H](NC(=O)[C@H](CCC(=O)O)NC(=O)[C@H](CCCCN)NC(=O)CCOCCOCCN(CCOCCOCCC(=O)N[C@@H](CCCCN)C(=O)N[C@@H](CCC(=O)O)C(=O)N[C@H](C(=O)N[C@@H](CCCNC(=N)N)C(=O)N[C@H](C(=O)O)C(C)C)[C@@H](C)O)C(=O)[C@H](CCCNC(=N)N)NC(=O)[C@H](CCCNC(=N)N)NC(=O)[C@H](CCCNC(=N)N)NC(=O)[C@H](CCC(N)=O)NC(=O)[C@H](CCCNC(=N)N)NC(=O)[C@H](CCCNC(=N)N)NC(=O)[C@H](CCCCN)NC(=O)[C@H](CCCCN)NC(=O)[C@H](CCCNC(=N)N)NC(=O)CNC(=O)[C@H](Cc1ccc(O)cc1)NC(=O)CCC(=O)NCCOCCOCCCCCCCl)[C@@H](C)O)C(=O)O` [Compound 18] is 1.6-fold lower in CP50: 78.4 ± 3.9 µM for the first, 47.7 ± 1.0 µM for the second.

`CC(C)[C@H](NC(=O)[C@@H](NC(=O)[C@@H](NC(=O)[C@H](CCC(=O)O)NC(=O)[C@@H](NC(=O)CCOCCOCCN(CCOCCOCCC(=O)N[C@H](C(=O)N[C@@H](CCC(=O)O)C(=O)N[C@H](C(=O)N[C@H](C(=O)N[C@H](C(=O)O)C(C)C)C(C)C)[C@@H](C)O)C(C)C)C(=O)[C@H](CCCNC(=N)N)NC(=O)[C@H](CCCNC(=N)N)NC(=O)[C@H](CCCNC(=N)N)NC(=O)[C@H](CCC(N)=O)NC(=O)[C@H](CCCNC(=N)N)NC(=O)[C@H](CCCNC(=N)N)NC(=O)[C@H](CCCCN)NC(=O)[C@H](CCCCN)NC(=O)[C@H](CCCNC(=N)N)NC(=O)CNC(=O)[C@H](Cc1ccc(O)cc1)NC(=O)CCC(=O)NCCOCCOCCCCCCCl)C(C)C)[C@@H](C)O)C(C)C)C(=O)O` [Compound 22] gave a CP50 of 86.1 ± 4.5 µM.
